Results: article PMC11876601 (Molecular Systems Biology, 2025)
Where “and” joins values, the source holds several entries; their conditions need not be identical. Equal entries are not always repeated. Where two headings read alike, the source gives them in different places.

System: AsPC-1 cells
Assay: Cell proliferation assay, chemodrug + ATR inhibitor (Incucyte confluence, 72 h);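 further: underlying read-out for every value is AsPC-1 confluence after 72 h incubation at 37 °C and 5% CO2, divided by that well's starting confluence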
Details: for Curve slope / Curve bottom / Curve top: fitted dose-response curve; for Curve bottom / Curve top: relative response; for AsPC-1 viability (ratio) / AsPC-1 viability mean (ratio) / Raw data (confluence at 72 h/confluence at 0 h): Gartisertib experiment; for EC50: Homo sapiens; for Ratio: Response / Response vehicle (mean)
[1] = AsPC1, Experiment ATRi (ATR inhibitor alone)
[2] = AsPC1, Experiment GEM+ATRi_dose1
[3] = AsPC1, Experiment GEM+ATRi_dose2
[4] = AsPC1, Experiment GEM+ATRi_dose3
[5] = replicate R1, titrated drug dose 3 nM
[6] = replicate R1, titrated drug dose 10 nM
[7] = replicate R1, titrated drug dose 30 nM
[8] = replicate R1, titrated drug dose 100 nM
[9] = replicate R1, titrated drug dose 300 nM
[10] = replicate R1, titrated drug dose 1000 nM
[11] = replicate R1, titrated drug dose 3000 nM
[12] = replicate R1, titrated drug dose 10000 nM
[13] = replicate R2, titrated drug dose 3 nM
[14] = replicate R2, titrated drug dose 10 nM
[15] = replicate R2, titrated drug dose 30 nM
[16] = replicate R2, titrated drug dose 100 nM
[17] = replicate R2, titrated drug dose 300 nM
[18] = replicate R2, titrated drug dose 1000 nM
[19] = replicate R2, titrated drug dose 3000 nM
[20] = replicate R2, titrated drug dose 10000 nM
[21] = replicate R3, titrated drug dose 3 nM
[22] = replicate R3, titrated drug dose 10 nM
[23] = replicate R3, titrated drug dose 30 nM
[24] = replicate R3, titrated drug dose 100 nM
[25] = replicate R3, titrated drug dose 300 nM
[26] = replicate R3, titrated drug dose 1000 nM
[27] = replicate R3, titrated drug dose 3000 nM
[28] = replicate R3, titrated drug dose 10000 nM

Protocol: Cells were seeded at 5000 cells/well into 96-well flat bottom plates (Eppendorf) and allowed to attach overnight. […] Cells were incubated for 72 h at 37 °C and 5% CO2. Cell confluence readouts at 72 h were either normalized to their initial confluence using the Incucyte software (AsPC-1) or used without prior normalization (all others). […] Each experiment was performed in triplicates, the data was plotted as mean ± standard deviation (s.d.).

Compound: Nc1nn2cc(F)cnc2c1C(=O)Nc1cncc(F)c1N1CCC(C(=O)N2CCN(C3COC3)CC2)CC1 [Gartisertib]
- Curve slope [1]: 1.84 and 2.11 and 1.85
- Curve bottom [1]: 0.97 and 0.99 and 1.02
- Curve top [1]: 0.32 and 0.29 and 0.28
- Curve slope [2]: 1.70 and 3.25 and 2.63
- Curve bottom [2]: 0.97 and 0.89 and 0.93
- Curve top [2]: 0.47 and 0.39
- Curve slope [3]: 1.86 and 2.66 and 1.99
- Curve bottom [3]: 1.01 and 0.93 and 0.97
- Curve top [3]: 0.45 and 0.36
- Curve bottom [4]: 0.93 and 0.90 and 0.88
- Curve top [4]: 0.47 and 0.36
- Response (GEM 0 nM, ATRi 3 nM): 2.96 and 3.43 and 3.57
- Response (GEM 0 nM, ATRi 10 nM): 3.28 and 3.77 and 3.92
- Response (GEM 0 nM, ATRi 30 nM): 3.05 and 3.68
- Response (GEM 1 nM + ATRi 3 nM): 3.14 and 3.82 and 3.86
- Response (GEM 1 nM + ATRi 10 nM): 3.23 and 3.93 and 3.90
- Response (GEM 1 nM + ATRi 30 nM): 2.84 and 3.74
- Response (GEM 3 nM + ATRi 3 nM): 3.14 and 3.83 and 3.74
- Response (GEM 3 nM + ATRi 10 nM): 3.01 and 3.70 and 3.66
- Response (GEM 3 nM + ATRi 30 nM): 3.03 and 3.39
- Response (GEM 10 nM + ATRi 3 nM): 2.77 and 3.58 and 3.45
- Response (GEM 10 nM + ATRi 10 nM): 2.54 and 2.78 and 2.71
- Response (GEM 10 nM + ATRi 30 nM): 1.88 and 1.90 and 1.98
- Response (GEM 30 nM + ATRi 3 nM): 2.10 and 2.28 and 2.14
- Response (GEM 30 nM + ATRi 10 nM): 1.63 and 1.61 and 1.64
- Response (GEM 30 nM + ATRi 30 nM): 1.75 and 1.65 and 1.57
- Response (GEM 100 nM + ATRi 3 nM): 1.68 and 1.66 and 1.64
- Response (GEM 100 nM + ATRi 10 nM): 1.57 and 1.53 and 1.56
- Response (GEM 100 nM + ATRi 30 nM): 1.53 and 1.59 and 1.47
- Response (GEM 300 nM + ATRi 3 nM): 1.57 and 1.60 and 1.54
- Response (GEM 300 nM + ATRi 10 nM): 1.52 and 1.50
- Response (GEM 300 nM + ATRi 30 nM): 1.48 and 1.44 and 1.43
- Response (GEM 1000 nM + ATRi 3 nM): 1.57 and 1.62
- Response (GEM 1000 nM + ATRi 10 nM): 1.40 and 1.55 and 1.43
- Response (GEM 1000 nM + ATRi 30 nM): 1.36 and 1.45 and 1.40
- Response (GEM 3000 nM + ATRi 3 nM): 1.36 and 1.58 and 1.49
- Response (GEM 3000 nM + ATRi 10 nM): 1.38 and 1.44 and 1.37
- Response (GEM 3000 nM + ATRi 30 nM): 1.32 and 1.42 and 1.36
- AsPC-1 viability (ratio) [5]: 0.9 ratio
- AsPC-1 viability mean (ratio) [5]: 0.59 ratio
- Raw data (confluence at 72 h/confluence at 0 h) [5]: 2.89
- AsPC-1 viability (ratio) [6]: 1.01 ratio
- AsPC-1 viability mean (ratio) [6]: 0.99 ratio
- Raw data (confluence at 72 h/confluence at 0 h) [6]: 3.24
- AsPC-1 viability (ratio) [7]: 0.95 ratio
- AsPC-1 viability mean (ratio) [7]: 0.48 ratio
- Raw data (confluence at 72 h/confluence at 0 h) [7]: 3.04
- AsPC-1 viability (ratio) [8]: 0.63 ratio
- AsPC-1 viability mean (ratio) [8]: 0.45 ratio
- Raw data (confluence at 72 h/confluence at 0 h) [8]: 2.03
- AsPC-1 viability (ratio) [9]: 0.44 ratio
- AsPC-1 viability mean (ratio) [9]: 0.4 ratio
- Raw data (confluence at 72 h/confluence at 0 h) [9]: 1.4
- AsPC-1 viability (ratio) [10]: 0.37 ratio
- AsPC-1 viability mean (ratio) [10]: 0.54 ratio
- Raw data (confluence at 72 h/confluence at 0 h) [10]: 1.19
- AsPC-1 viability (ratio) [11]: 0.33 ratio
- AsPC-1 viability mean (ratio) [11]: 0.49 ratio
- Raw data (confluence at 72 h/confluence at 0 h) [11]: 1.04
- AsPC-1 viability (ratio) [12]: 0.27 ratio
- AsPC-1 viability mean (ratio) [12]: 0.45 ratio
- Raw data (confluence at 72 h/confluence at 0 h) [12]: 0.87
- AsPC-1 viability (ratio) [13]: 1.01 ratio
- AsPC-1 viability mean (ratio) [13]: 0.6 ratio
- Raw data (confluence at 72 h/confluence at 0 h) [13]: 4.15
- AsPC-1 viability (ratio) [14]: 1 ratio
- AsPC-1 viability mean (ratio) [14]: 1.08 ratio
- Raw data (confluence at 72 h/confluence at 0 h) [14]: 4.13
- AsPC-1 viability (ratio) [15]: 0.94 ratio
- AsPC-1 viability mean (ratio) [15]: 0.49 ratio
- Raw data (confluence at 72 h/confluence at 0 h) [15]: 3.88
- AsPC-1 viability (ratio) [16]: 0.73 ratio
- AsPC-1 viability mean (ratio) [16]: 0.44 ratio
- Raw data (confluence at 72 h/confluence at 0 h) [16]: 3.03
- AsPC-1 viability (ratio) [17]: 0.38 ratio
- AsPC-1 viability mean (ratio) [17]: 0.4 ratio
- Raw data (confluence at 72 h/confluence at 0 h) [17]: 1.58
- AsPC-1 viability (ratio) [18]: 0.31 ratio
- AsPC-1 viability mean (ratio) [18]: 0.53 ratio
- Raw data (confluence at 72 h/confluence at 0 h) [18]: 1.27
- AsPC-1 viability (ratio) [19]: 0.28 ratio
- AsPC-1 viability mean (ratio) [19]: 0.92 ratio
- Raw data (confluence at 72 h/confluence at 0 h) [19]: 1.17
- AsPC-1 viability (ratio) [20]: 0.29 ratio
- AsPC-1 viability mean (ratio) [20]: 0.47 ratio
- Raw data (confluence at 72 h/confluence at 0 h) [20]: 1.19
- AsPC-1 viability (ratio) [21]: 1.02 ratio
- AsPC-1 viability mean (ratio) [21]: 0.58 ratio
- Raw data (confluence at 72 h/confluence at 0 h) [21]: 4.1
- AsPC-1 viability (ratio) [22]: 0.97 ratio
- AsPC-1 viability mean (ratio) [22]: 0.53 ratio
- Raw data (confluence at 72 h/confluence at 0 h) [22]: 3.9
- AsPC-1 viability (ratio) [23]: 0.94 ratio
- AsPC-1 viability mean (ratio) [23]: 0.35 ratio
- Raw data (confluence at 72 h/confluence at 0 h) [23]: 3.77
- AsPC-1 viability (ratio) [24]: 0.8 ratio
- AsPC-1 viability mean (ratio) [24]: 0.35 ratio
- Raw data (confluence at 72 h/confluence at 0 h) [24]: 3.2
- AsPC-1 viability (ratio) [25]: 0.41 ratio
- AsPC-1 viability mean (ratio) [25]: 0.34 ratio
- Raw data (confluence at 72 h/confluence at 0 h) [25]: 1.63
- AsPC-1 viability (ratio) [26]: 0.33 ratio
- AsPC-1 viability mean (ratio) [26]: 0.47 ratio
- Raw data (confluence at 72 h/confluence at 0 h) [26]: 1.34
- AsPC-1 viability (ratio) [27]: 0.29 ratio
- AsPC-1 viability mean (ratio) [27]: 0.35 ratio
- Raw data (confluence at 72 h/confluence at 0 h) [27]: 1.18
- AsPC-1 viability (ratio) [28]: 0.25 ratio
- AsPC-1 viability mean (ratio) [28]: 0.34 ratio
- Raw data (confluence at 72 h/confluence at 0 h) [28]: 1
- EC50 (ASPC1, 72 h, AsPC1, Experiment ATRi (ATR inhibitor alone), single replicates R1-R3): 107 nM
- EC50 (ASPC1, 72 h, read-out: EC50 (cell growth), ATR inhibitor as single agent): 128 nM
- EC50 (ASPC1, 72 h, read-out: EC50 mean [nM], AsPC1, Experiment ATRi (ATR inhibitor alone), mean of replicates): 128 nM
- EC50 (ASPC1, 72 h, read-out: pEC50, AsPC1 (converted), Experiment ATRi (ATR inhibitor alone), single replicates R1-R3): 107 nM
- EC50 (ASPC1, read-out: EC50 mean [nM], AsPC1, Experiment ATRi (ATR inhibitor alone), mean of replicates): 128 nM
- Ratio (GEM 0 nM, ATRi 3 nM): 0.90 and 0.92 and 1.01 and 0.83 and 1.02 and 0.89
- Ratio (GEM 0 nM, ATRi 10 nM): 1.01 and 1.02 and 1.00 and 0.91 and 0.97 and 0.98
- Ratio (GEM 0 nM, ATRi 30 nM): 0.95 and 0.94 and 0.89
- Ratio (GEM 0 nM, ATRi 100 nM): 0.63 and 0.73 and 0.80
- Ratio (GEM 0 nM, ATRi 300 nM): 0.44 and 0.38 and 0.41
- Ratio (GEM 0 nM, ATRi 1000 nM): 0.37 and 0.31 and 0.33
- Ratio (GEM 0 nM, ATRi 3000 nM): 0.33 and 0.28 and 0.29
- Ratio (GEM 0 nM, ATRi 10000 nM): 0.27 and 0.29 and 0.25
- Ratio (GEM 1 nM + ATRi 3 nM): 0.98 and 0.92 and 0.96
- Ratio (GEM 1 nM + ATRi 10 nM): 1.01 and 0.95 and 0.97
- Ratio (GEM 1 nM + ATRi 30 nM): 0.89 and 0.91 and 0.87
- Ratio (GEM 3 nM + ATRi 3 nM): 0.98 and 0.93
- Ratio (GEM 3 nM + ATRi 10 nM): 0.94 and 0.89 and 0.91
- Ratio (GEM 3 nM + ATRi 30 nM): 0.95 and 0.82 and 0.85
- Ratio (GEM 10 nM + ATRi 3 nM): 0.87 and 0.86
- Ratio (GEM 10 nM + ATRi 10 nM): 0.79 and 0.67 and 0.68
- Ratio (GEM 10 nM + ATRi 30 nM): 0.59 and 0.46 and 0.49
- Ratio (GEM 30 nM + ATRi 3 nM): 0.66 and 0.55 and 0.53
- Ratio (GEM 30 nM + ATRi 10 nM): 0.51 and 0.39 and 0.41
- Ratio (GEM 30 nM + ATRi 30 nM): 0.55 and 0.40 and 0.39
- Ratio (GEM 100 nM + ATRi 3 nM): 0.52 and 0.40 and 0.41
- Ratio (GEM 100 nM + ATRi 10 nM): 0.49 and 0.37 and 0.39
- Ratio (GEM 100 nM + ATRi 30 nM): 0.48 and 0.38 and 0.37
- Ratio (GEM 300 nM + ATRi 3 nM): 0.49 and 0.39 and 0.38
- Ratio (GEM 300 nM + ATRi 10 nM): 0.47 and 0.37
- Ratio (GEM 300 nM + ATRi 30 nM): 0.46 and 0.35 and 0.36
- Ratio (GEM 1000 nM + ATRi 3 nM): 0.49 and 0.39
- Ratio (GEM 1000 nM + ATRi 10 nM): 0.44 and 0.38 and 0.36
- Ratio (GEM 1000 nM + ATRi 30 nM): 0.43 and 0.35
- Ratio (GEM 3000 nM + ATRi 3 nM): 0.43 and 0.38 and 0.37
- Ratio (GEM 3000 nM + ATRi 10 nM): 0.43 and 0.35 and 0.34
- Ratio (GEM 3000 nM + ATRi 30 nM): 0.41 and 0.34
